Consider 6 molecules from BindingDB's records for doi:10.7270/Q2TH8K43 (Burnham Center For Chemical Genomics, 2010).

The target of this assay is Nucleotide-binding oligomerization domain-containing protein 2 (Homo sapiens, UniProt Q9HC29). In words: PubChem AID 2334.

The IC50 is the concentration that inhibits the measured activity by half.

Chain of Nucleotide-binding oligomerization domain-containing protein 2 (Q9HC29 whole entry, the tested form may be a part): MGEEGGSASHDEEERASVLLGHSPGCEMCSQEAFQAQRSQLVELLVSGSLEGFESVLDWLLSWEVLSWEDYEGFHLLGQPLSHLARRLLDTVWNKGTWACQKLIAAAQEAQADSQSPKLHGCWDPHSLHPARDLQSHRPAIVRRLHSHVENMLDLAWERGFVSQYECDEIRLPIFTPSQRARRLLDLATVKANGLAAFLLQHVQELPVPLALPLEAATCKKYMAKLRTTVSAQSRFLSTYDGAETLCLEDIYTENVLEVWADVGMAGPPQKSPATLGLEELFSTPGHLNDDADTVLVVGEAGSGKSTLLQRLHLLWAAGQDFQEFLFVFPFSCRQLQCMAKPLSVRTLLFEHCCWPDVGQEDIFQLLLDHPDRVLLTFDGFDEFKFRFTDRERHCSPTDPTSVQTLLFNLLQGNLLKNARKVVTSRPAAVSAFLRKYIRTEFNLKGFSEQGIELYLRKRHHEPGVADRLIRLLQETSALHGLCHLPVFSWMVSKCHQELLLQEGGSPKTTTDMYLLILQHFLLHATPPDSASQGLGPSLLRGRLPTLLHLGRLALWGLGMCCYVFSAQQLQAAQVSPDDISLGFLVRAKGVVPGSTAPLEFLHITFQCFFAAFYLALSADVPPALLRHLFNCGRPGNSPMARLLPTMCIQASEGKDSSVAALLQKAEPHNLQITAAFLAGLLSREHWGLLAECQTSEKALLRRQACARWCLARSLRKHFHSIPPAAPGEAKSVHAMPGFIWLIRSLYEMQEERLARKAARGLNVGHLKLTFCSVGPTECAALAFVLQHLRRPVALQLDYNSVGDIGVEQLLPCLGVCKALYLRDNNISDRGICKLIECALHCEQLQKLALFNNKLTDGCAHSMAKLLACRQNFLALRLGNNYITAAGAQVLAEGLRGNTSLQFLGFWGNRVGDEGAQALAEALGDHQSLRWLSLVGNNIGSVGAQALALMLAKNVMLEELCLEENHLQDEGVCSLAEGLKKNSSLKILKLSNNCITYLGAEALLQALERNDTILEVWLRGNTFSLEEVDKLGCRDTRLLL

`Cc1cc(Br)ccc1SCC(=O)OCC(=O)C(C#N)c1nc2ccccc2[nH]1` (stereo unspecified) [2-[(4-bromo-2-methylphenyl)thio]acetic acid [3-cyano-3-(1,3-dihydrobenzimidazol-2-ylidene)-2-oxopropyl] ester] showed an IC50 of more than 20 µM.
For `N#CC(C(=O)COC(=O)CSc1ccc2ccccc2c1)c1nc2ccccc2[nH]1` (stereo unspecified) [[3-cyano-3-(1,3-dihydrobenzimidazol-2-ylidene)-2-oxopropyl] 2-naphthalen-2-ylsulfanylacetate] the value was more than 20 µM; for `N#CC(C(=O)COC(=O)CSc1ccc(Cl)cc1)c1nc2ccccc2[nH]1` (stereo unspecified) [MLS-0208254.0001], more than 20 µM; for `Cc1ccc(C)c(SCC(=O)OCC(=O)C(C#N)c2nc3ccccc3[nH]2)c1` (stereo unspecified) [MLS000392255], more than 20 µM.
As for `Cc1ccc(O)c(/N=C/C2=CC(Cc3ccccc3)C=C([N+](=O)[O-])C2=O)c1` (stereo unspecified) [(6E)-6-[[(5-methyl-2-oxidanyl-phenyl)amino]methylidene]-2-nitro-4-(phenylmethyl)cyclohexa-2,4-dien-1-one], the figure is more than 20 µM; as for `Cc1cc(SCC(=O)OCC(=O)C(C#N)c2nc3ccccc3[nH]2)c(C)cc1Br` (stereo unspecified), more than 20 µM.
